Measurements as given in a melting point compilation (Tetko et al.; mined from patent text by program, amines drawn as free bases though some values may be those of a salt).

| melting point [°C] | Structure (SMILES) |
| --- | --- |
| 100 to 102 | CCCCCCCCS(=O)(=O)Nc1ccccc1Oc1ccccc1C(=O)O |
| 201 to 202 | CC1Nc2ccc(-c3ccc(C#N)[nH]3)cc2C(C)(C)O1 (stereo not drawn) |
| > 305 | CC1(C)CCCNC1C(=O)O (stereo not drawn) |
| 130 to 132 | FC(F)(F)c1cc(-c2ccnc(Nc3ccc4c(c3)OCCO4)c2)cc(C(F)(F)F)c1 |
| 137 to 138 | NC(=O)C1(c2c(F)cccc2F)CC1 |
| 147 to 148 | COc1ccc(CN2C(=O)C3(COc4cc5c(cc43)OCO5)c3ccccc32)cc1 (stereo not drawn) |
| 118 to 120 | CC1(C)OC[C@@H](COn2cnc3c(Cl)nc(N)nc32)O1 |
| 161 to 163 | O=C(O)CN1C(=O)O[C@H](c2ccccc2)[C@@H]1c1ccccc1 |
| 46 to 47 | c1cn(CCCc2ccc(OCc3coc(C4CCCCC4)n3)cc2)cn1 |
| 284 to 285 | CCN(c1ccc(C(=O)O)cc1)c1cc2c3c(c1)CCCC3CCC2 |
| 163 to 165 | CC(=O)N1CCCC(=O)c2cc(Cl)c(Cl)cc2CCC1=O |
| 177 to 178 | CCc1nc2c(-c3cc4cc(Br)oc4cc3C)ncnc2n1C(C1CC1)C1CC1 |
| > 250 | Fc1cccc2c1[nH]c1c2ccc2cc[nH]c21 |
| 136 to 138 | N#CN=C(Nc1cccnc1)NC(NC(=O)c1ccc(Cl)cc1)C(F)(F)F (stereo not drawn) |
| 192 to 194 | Cc1nnc(NC(=O)c2sccc2S(=O)(=O)Nc2onc(C)c2Cl)s1 |
| 206 to 208 | Cn1cc(C(=O)NCc2ccc(Cl)cc2)c(=O)c2cc(C#CCO)sc21 |
| 131 to 132 | CC(C)N1CCN(C(=O)c2ccc(-c3ccc(=O)n(C)n3)cc2)CC1 |
| 276 to 278 | CSC1NC(=O)N(c2ccc(C)cc2)C(=O)N1 |
| 142 to 143 | O=S(=O)(c1ccc(Oc2ccccc2)cc1)c1ccc(Oc2ccccc2)cc1 |
| 206 | CCn1c(=O)c2c(nc(/C=C/c3ccc(OCC(C)=O)c(OC)c3)n2C)n(CC)c1=O |
| 118 to 120 | CCCCC1=C(C#N)N(O)CS1 |
| 178 | Cc1cccc(C(=NO)c2ccc(Cl)cc2)c1O |
| 125 to 126 | C=CCn1c(C)c(C)c2cnnc(OCc3ccc(F)cc3)c21 |
| 122 to 124 | COC(=O)c1cc(Nc2ccccc2)c(Nc2ccc(OC)cc2)cc1C(=O)OC |
| 192 to 193 | CC1(C)OC(=S)Nc2ccc(-c3cc(Br)cc(OC(F)(F)F)c3)cc21 |

| melting point [°C] | Structure (SMILES) |
| --- | --- |
| 210 to 212 | N#Cc1ccc(C2C3=C(CCCC3)NC3=C2C(=O)CCC3)cc1C(F)(F)F (stereo not drawn) |
| 102 to 105 | CC(O)C(Cc1cc(C(C)(C)C)c(O)c(C(C)(C)C)c1)C(C)O (stereo not drawn) |
| 244 to 245 | Cc1c(Nc2ccc([N+](=O)[O-])cc2C(=O)O)cccc1C(F)(F)F |
| 188 to 190 | O=C(O)C(CCc1ccc(Cl)cc1)(Cn1cncn1)c1ccccc1 (stereo not drawn) |
| 76 to 77 | CC(=O)OCc1cc(C)cc(Oc2nc(Cl)nc(Cl)c2C(C)C)c1 |
| 251 | CC(=O)Nc1ccc2c(c1)C(c1cccn1-c1cccc(Cl)c1)C(=O)N2 (stereo not drawn) |
| 109 to 111 | O=C(c1ccc(O)cc1O)c1ccccc1F |
| 240 | CCOC(=O)c1nc2c(=O)[nH]c3cc(C(F)(F)F)ccc3n2c1Cn1cnc(Cl)c1Cl |
| 74 to 76 | COc1ccc(C#N)c2c1OC1(CCCC1)C2 |
| 167 to 171 | CCC(=O)N1C(=S)NC(C)=C(C(=O)OC)C1c1cccc([N+](=O)[O-])c1 (stereo not drawn) |
| 59 to 61 | COC(=O)CSC(C)c1ccc(-c2ccc(OC)cc2)cc1 (stereo not drawn) |
| 41 to 42 | COc1cccc(Oc2cccc(-c3ccccc3)c2)c1 |
| 222 to 224 | CCc1nnc2c(NC(C)C)nc3ccccc3n12 |
| 169 to 170 | CCOC(=O)C1=C(C)N2CCNC2=C(C(=O)OCC)C1c1cccc2ccccc12 (stereo not drawn) |
| 137 to 142 | Cc1cc(OC/C=C(\c2ccc(C#CCN3CCOCC3)cc2)c2ccc(S(C)=O)cc2)ccc1OCC(=O)O (stereo not drawn) |
| 135 to 136 | O=C(NCCO)c1cccc(-c2cccc3oc(Cc4cccc(C(F)(F)F)c4)cc23)c1 |
| > 300 | Cc1cc2[nH]c(=O)c3cnc(Cl)cc3n2n1 |
| 100 to 102 | COc1cccc2c(=O)n(-c3ccc(Br)cc3)c(-c3cc(C)c(OCCO)c(C)c3)nc12 |
| > 300 | Cn1cc(C2=C(c3cn(C)c4ccccc34)C(=O)NC2=O)c2ccccc21 |
| 91 | OC(CCSC(=S)Nc1ccc(Cl)cn1)c1ccccc1 (stereo not drawn) |
| 185 to 187 | Cc1c(Sc2ccc(Cl)cc2)c2cc(S(C)(=O)=O)ccc2n1CC(=O)O |
| 249 to 250 | CS(=O)(=O)NCCCC1COCc2nc3c(N)nc4ccccc4c3n21 (stereo not drawn) |
| 201 to 203 | COC(=O)NCCC1CN=C(c2cc3cccc(N(C)S(=O)(=O)c4cccs4)c3[nH]2)S1 (stereo not drawn) |
| 153 to 154 | O=C(NCCCCCCCNC(=O)c1ccc(OC2CCCC2)cc1)c1ccc(OC2CCCC2)cc1 |
| > 220 | N=c1[nH]c(=O)c2nc[nH]c2c(=O)[nH]1 |

| melting point [°C] | Structure (SMILES) |
| --- | --- |
| 179 to 180 | Cc1cccc(/C=C/C(=O)Nc2cccc(NC(=N)c3ccccc3)c2)c1 |
| 173 to 174 | O=[N+]([O-])c1cc2c(c3ccc(S(=O)(=O)NCCO)cc13)C(CCl)CN2 (stereo not drawn) |
| 200 to 201 | CC(=O)Nc1nc(CCc2ccc(N)cc2)c(C(=O)NCc2ccccc2)s1 |
| 145 to 148 | CCOc1ccc(C2=NN(C3CCN(C(=O)NC(C)(C)C)CC3)C(=O)[C@@H]3CC=CC[C@H]23)cc1OCC |
| 183 to 185 | NC(=O)N(O)CCNC(=O)c1cccc(OCc2ccccc2)c1 |
| 263 to 264 | NC(=O)c1cncc(N)c1 |
| 60 to 62 | c1cc(C2CCOCC2)ccn1 |
| 147 to 149 | CCOCc1nc2c(N)nc(C)c(C)c2n1NCCCNS(C)(=O)=O |
| 134 to 135 | NNC(=O)c1ccccc1Nc1cccc(C(F)(F)F)c1 |
| 233 to 234 | CCOC(=O)c1ncn2c1c(=O)n(C)c1ncccc12 |
| 218 to 219 | COC(=O)C1=C(C)Nc2ncnc(OC(C)C)c2C1c1cccc([N+](=O)[O-])c1 (stereo not drawn) |
| 81 to 83 | CNC(=O)C(C#N)C(=O)C1CCC1 (stereo not drawn) |
| 167 to 170 | COCCNn1ncc2nc(C)ccc21 |
| 77 to 79 | CCCCCCCCCCCCc1cnn(C(C(=O)Nc2c(OC)cc(OC)cc2OC)c2ccccc2)c1 (stereo not drawn) |
| 81 to 83 | CCOC(=O)c1c(C)nn(C)c1CCl |
| 216 to 217 | Cc1nc(N2CCN(Cc3ccc(C(F)(F)F)cc3)C2=O)sc1C(N)=O |
| 93 to 96 | Cc1cccc(-c2[nH]c(C(C)C)nc2-c2cccc(-c3ccc(S(=O)(=O)N(C)C)cc3)c2)n1 |
| 121 to 122 | CC(C)(C)c1ccc(/C=N/OCCCOc2ccc(C(=O)O)c(NC(=O)c3ccccc3C(F)(F)F)c2)cc1 |
| 138 to 140 | CC1(C)COC(CCCc2ccc(NC=NO)cc2)OC1 |
| 136 to 137 | O=C(Cn1ccnc1[N+](=O)[O-])NCC(F)(F)C(F)(F)F |
| 157 to 160 | Cn1cc(C(=O)NCc2ccc(Cl)cc2)c(=O)c2cc(CCCCO)oc21 |
| 64 to 65 | CCOC12CC(C=C(C#N)COC)=CC=C1OCO2 (stereo not drawn) |
| 249 to 251 | O=C1Nc2cccc(Cl)c2C(=O)N2C=CC[C@@H]12 |
| 81 to 83 | CN1C(C)(C#N)CCC1(C)C#N (stereo not drawn) |
| 114 to 116 | COCc1cnn2c(-c3cccc(C(F)(F)F)c3)ccnc12 |

| melting point [°C] | Structure (SMILES) |
| --- | --- |
| 115 to 118 | CCC(CC)c1ccc(Cl)c2nc(Nc3ccc(C)cc3Br)n(CCCCO)c12 |
| 236 to 237 | Cc1ccc2c(=O)[nH]c(N3CCN(CCO)CC3)cc2c1 |
| 54 to 56 | Cc1cc(C(F)(F)F)nc(OCC2CO2)c1C(=O)C1=C(O)C2CCC(C2)C1=O (stereo not drawn) |
| 134 to 135 | CC(C)(C)NC(=O)[C@@H]1CN(C(=O)OC(C)(C)C)CCN1C(=O)OCc1ccccc1 |
| 102 to 104 | NS(=O)(=O)c1ncccc1S |
| 154 to 155 | COc1cccc(NC(=O)c2ccc(C(=O)N3CCCc4ccccc43)cc2)c1 |
| 177 to 178 | COc1cc(C(=O)N2CCN(C(=O)C3=Cc4cc(C)c(C)cc4OCC3)CC2)cc(OC)c1OC |
| 153 to 155 | O=C(O)C=Cc1c(-c2ccccc2)nn2ccccc12 |
| 152 to 153 | Oc1ccc(C2CCC3(CC2)OCCO3)cc1 |
| 225 to 226 | CS(=O)(=O)c1ccc(-n2cnc3ccc(-c4nnc(CCc5cccc(C#N)c5)o4)cc32)cc1 |
| 78 to 80 | CCCN(CCC)C(Cc1cccc2[nH]cnc12)C(=O)OCC (stereo not drawn) |
| 159 to 160 | O=C(O)c1cc(Cl)ccc1OC1CCOC1=O (stereo not drawn) |
| 207 to 208 | O=c1ccsc2c3ccccc3n(-c3ccccc3[N+](=O)[O-])c12 |
| 72 to 74 | CC(O)(CCBr)c1ccc(-c2cccc(F)c2)cc1 (stereo not drawn) |
| 146 to 147 | COc1ccc2c(c1)C(c1ccccc1)NC(=S)N2CC1CC1 (stereo not drawn) |
| 118 to 119 | Nc1c(Cl)cc(Cl)n2nc(SCc3ccccc3)nc12 |
| 95 to 96 | CC1=CC(=Nc2nccs2)C(C)C(C)=C1O (stereo not drawn) |
| 201 to 203 | CC1(C)CCC(C)(C)c2cc(COc3cccc(C(=O)O)c3-c3ccc(CCO)cc3)ccc21 |
| 199 to 201 | CN(Cc1nc(-c2cc(C(C)(C)C)c(O)c(C(C)(C)C)c2)cs1)c1ccc([N+](=O)[O-])cc1 |
| 187 to 194 | CC(C)(CC(O)(C(=O)Nc1ccc2c(c1Br)COC2=O)C(F)(F)F)c1ccccc1 (stereo not drawn) |
| 132 to 135 | CN(C)C(N)=Nc1cc(C(F)(F)F)ccc1N1CCOCC1 |
| 140 | Nc1ccc(CCOC(=O)Nc2ccc(Nc3ccccc3)cc2)cc1 |
| 85 to 87 | Cc1oc(-c2ccccc2)nc1Cc1cccc(CC2COC(C)(C)OC2)c1 |
| 110 to 111 | CC1OC(O)CC(NC(=O)C(F)(F)F)C1(C)O (stereo not drawn) |
| 242 | CC(C)(C)OC(=O)N1CCN(c2ccc(-c3[nH]nc4c3C(=O)c3c(NC(=O)NN5CCOCC5)cccc3-4)cc2)CC1 |

| Structure (SMILES) | melting point [°C] |
| --- | --- |
| COc1ccc(N2CCOP(=O)(Oc3ccccc3)OCC2)cc1 | 124 to 126 |
| CC1(C)C(=O)C(C(=O)c2ccc(Cl)cc2[N+](=O)[O-])C(=O)C(C)(C)C1=O | 76 to 82 |
| Cc1nnc2n1-c1sc(Cl)cc1C(c1ccccc1Cl)=NC2 | 205 to 206 |
